Each compound was assayed on HCV genotype 1b replicon in Huh 7 cells (assay: HCV replicon assay (1b_Huh-Luc/Neo-ET cell line, luciferase readout)). Settings: Hepatitis C virus; Table 1; genotype 1b replicon, Huh 7 cells, 72 h, luciferase; read-out: Inhibition of HCV genotype 1b.
Format: cell-based
In short: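 Huh 7 cells carrying a bicistronic genotype 1b luciferase replicon were treated with compound in triplicate the day after plating and incubated 72 h. Luciferase activity expressed as % of untreated control; EC50 from a four-parameter logistic fit, repeated several times.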

| SMILES | EC50 [nM] |
| --- | --- |
| CN(C)[C@@H](C(=O)N1CCC[C@H]1c1nc(-c2ccc3nc(C45CCC(c6cnc([C@@H]7CCCN7C(=O)[C@@H](c7ccccc7)N(C)C)[nH]6)(CC4)CC5)ccc3c2)c[nH]1)c1ccccc1 [compound 264] | 1 to 9.9 |
| COC(=O)N[C@H](C(=O)N1CCC[C@H]1c1nc(-c2ccc3nc(C45CCC(c6cnc([C@@H]7CCCN7C(=O)[C@@H](NC(=O)OC)C7CC7)[nH]6)(CC4)CC5)ccc3c2)c[nH]1)C1CC1 [compound 265] | < 1 |
| COC(=O)N[C@@H](C)C(=O)N1CCC[C@H]1c1nc(-c2ccc3nc(C45CCC(c6cnc([C@@H]7CCCN7C(=O)[C@H](C)NC(=O)OC)[nH]6)(CC4)CC5)ccc3c2)c[nH]1 [compound 266] | < 1 |
| c1cc2nc(C34CCC(c5cnc([C@@H]6CCCN6)[nH]5)(CC3)CC4)ccc2cc1-c1c[nH]c([C@@H]2CCCN2)n1 [compound 267] | > 1000 |
| CC(C)(C)OC(=O)N1CCCC1c1ncc(C23CCC(c4ccc5cc(-c6c[nH]c([C@@H]7CCCN7C(=O)OC(C)(C)C)n6)ccc5n4)(CC2)CC3)[nH]1 (some centres unmarked) [compound 268] | 10 to 999 |
| COC(=O)N[C@H](C(=O)N1CCC[C@H]1c1nc(-c2ccc3c(c2)CCN(c2c(F)cc(-c4cnc([C@@H]5CCCN5C(=O)[C@@H](NC(=O)OC)C(C)C)[nH]4)cc2F)C3)c[nH]1)C(C)C [compound 269] | < 1 |
| COC(=O)N[C@@H](C(=O)N1CCC[C@H]1c1nc(-c2ccc3c(c2)CCN(c2c(F)cc(-c4cnc([C@@H]5CCCN5C(=O)[C@H](NC(=O)OC)c5ccccc5)[nH]4)cc2F)C3)c[nH]1)c1ccccc1 [compound 270] | < 1 |
| COC(=O)N[C@H](C(=O)N1CCC[C@H]1c1nc(-c2ccc3c(c2)CCN(c2c(F)cc(-c4cnc([C@@H]5CCCN5C(=O)[C@@H](NC(=O)OC)C5CC5)[nH]4)cc2F)C3)c[nH]1)C1CC1 [compound 271] | < 1 |
| COC(=O)N[C@@H](C)C(=O)N1CCC[C@H]1c1nc(-c2ccc3c(c2)CCN(c2c(F)cc(-c4cnc([C@@H]5CCCN5C(=O)[C@H](C)NC(=O)OC)[nH]4)cc2F)C3)c[nH]1 [compound 272] | < 1 |
| COC(=O)N[C@@H](C)C(=O)N1CCC[C@H]1c1nc(-c2ccc3nc(N4CCC(c5cnc([C@@H]6CCCN6C(=O)[C@H](C)NC(=O)OC)[nH]5)CC4)ccc3c2)c[nH]1 [compound 273] | 1 to 9.9 |
| COC(=O)N[C@H](C(=O)N1CCC[C@H]1c1nc(-c2ccc3nc(N4CCC(c5cnc([C@@H]6CCCN6C(=O)[C@@H](NC(=O)OC)C6CC6)[nH]5)CC4)ccc3c2)c[nH]1)C1CC1 [compound 274] | 1 to 9.9 |
| COC(=O)N[C@H](C(=O)N1CCC[C@H]1c1nc(-c2ccc3nc(N4CCC(c5cnc([C@@H]6CCCN6C(=O)[C@@H](NC(=O)OC)C(C)C)[nH]5)CC4)ccc3c2)c[nH]1)C(C)C [compound 275] | < 1 |
| COC(=O)N[C@H](C(=O)N1CCC[C@H]1c1nc2ccc(-c3ccc4cc(-c5ccc6nc([C@@H]7CCCN7C(=O)[C@@H](NC(=O)OC)C(C)C)[nH]c6c5)ccc4c3)cc2[nH]1)C(C)C [compound 276] | < 1 |
| COC(=O)N[C@H](C(=O)N1CCC[C@H]1c1nc2ccc(-c3cccc4c(-c5ccc6nc([C@@H]7CCCN7C(=O)[C@@H](NC(=O)OC)C(C)C)[nH]c6c5)cccc34)cc2[nH]1)C(C)C [compound 277] | < 1 |
| COC(=O)N[C@@H](C)C(=O)N1CCC[C@H]1c1nc2ccc(-c3ccc4cc(-c5ccc6nc([C@@H]7CCCN7C(=O)[C@H](C)NC(=O)OC)[nH]c6c5)ccc4c3)cc2[nH]1 [compound 278] | < 1 |
| COC(=O)N[C@H](C(=O)N1CCC[C@H]1c1nc2ccc(-c3ccc4cc(-c5ccc6nc([C@@H]7CCCN7C(=O)[C@@H](NC(=O)OC)C7CCOCC7)[nH]c6c5)ccc4c3)cc2[nH]1)C1CCOCC1 [compound 279] | < 1 |

| SMILES | EC50 [nM] |
| --- | --- |
| COC(=O)N[C@H](C(=O)N1CCC[C@H]1c1nc2ccc(-c3ccc4nc(-c5ccc6nc([C@@H]7CCCN7C(=O)[C@@H](NC(=O)OC)C(C)C)[nH]c6c5)ccc4c3)cc2[nH]1)C(C)C [compound 280] | < 1 |
| COC(=O)N[C@H](C(=O)N1CCC[C@H]1c1nc2ccc(-c3ccc4cc(-c5ccc6nc([C@@H]7CCCN7C(=O)[C@@H](NC(=O)OC)C(C)C)[nH]c6c5)ncc4c3)cc2[nH]1)C(C)C [compound 281] | < 1 |
| COC(=O)N[C@H](C(=O)N1CCC[C@H]1c1nc2ccc(-c3ccc4cc(-c5ccc6nc([C@@H]7CCCN7C(=O)[C@@H](NC(=O)OC)C7CCOCC7)[nH]c6c5)ccc4c3)cc2[nH]1)C(C)C [compound 282] | < 1 |
| COC(=O)N[C@H](C(=O)N1CCC[C@H]1c1nc2ccc(-c3ccc4cc(-c5ccc6nc([C@@H]7CCCN7C(=O)[C@H](NC(=O)OC)c7ccccc7)[nH]c6c5)ccc4c3)cc2[nH]1)C(C)C [compound 283] | < 1 |
| COC(=O)N[C@H](C(=O)N1CCC[C@H]1c1nc2ccc(-c3ccc4cc(-c5ccc6nc([C@@H]7CCCN7C(=O)[C@@H](NC(=O)OC)C7CCOCC7)[nH]c6n5)ccc4c3)nc2[nH]1)C1CCOCC1 [compound 284] | 1 to 9.9 |
| COC(=O)N[C@@H](C(=O)N1CCC[C@H]1c1nc(-c2ccc3nc(C4CCC(c5cnc([C@@H]6CCCN6C(=O)[C@H](NC(=O)OC)c6ccccc6)[nH]5)CC4)ccc3c2)c[nH]1)c1ccccc1 (some centres unmarked) [compound 286] | < 1 |
| COC(=O)N[C@H](C(=O)N1CCC[C@H]1c1nc(-c2ccc3c(=O)n(-c4ccc(-c5cnc([C@@H]6CCCN6C(=O)[C@@H](NC(=O)OC)C(C)C)[nH]5)cc4)ccc3c2)c[nH]1)C(C)C [compound 287] | < 1 |
| COC(=O)N[C@@H](C(=O)N1CCC[C@H]1c1nc(-c2ccc3c(=O)n(-c4ccc(-c5cnc([C@@H]6CCCN6C(=O)[C@H](NC(=O)OC)c6ccccc6)[nH]5)cc4)ccc3c2)c[nH]1)c1ccccc1 [compound 288] | < 1 |
| COC(=O)N[C@@H](C(=O)N1CCC[C@H]1c1nc(-c2ccc3c(c2)CCN(c2ccc(-c4cnc([C@@H]5CCCN5C(=O)[C@H](NC(=O)OC)c5ccccc5)[nH]4)cc2)C3=O)c[nH]1)c1ccccc1 [compound 289] | < 1 |
| COC(=O)N[C@H](C(=O)N1CCC[C@H]1c1ncc(-c2ccc(N3Cc4cc(-c5cnc([C@@H]6CCCN6C(=O)[C@@H](NC(=O)OC)C(C)C)[nH]5)ccc4C3=O)cc2)[nH]1)C(C)C [compound 290] | < 1 |
| COC(=O)N[C@H](C(=O)N1CCC[C@H]1c1nc(C2CNc3cc(-c4ccc(-c5cnc([C@@H]6CCCN6C(=O)[C@H](NC(=O)OC6CCOCC6)c6ccccc6)[nH]5)cc4)ccc3C2)c[nH]1)C(C)C (some centres unmarked) [compound 291] | < 1 |
| COC(=O)N[C@H](C(=O)N1CCC[C@H]1c1ncc(-c2ccc3nc(-c4ccc5c(ccc6nc([C@@H]7CCCN7C(=O)[C@@H](NC(=O)OC)C(C)C)[nH]c65)c4)ccc3c2)[nH]1)C(C)C [compound 296] | < 1 |
| COC(=O)N[C@H](C(=O)N1CCC[C@H]1c1nc2ccc3cc(-c4ccc5cc(-c6cnc([C@@H]7CCCN7C(=O)[C@@H](NC(=O)OC)C7CCOCC7)[nH]6)ccc5n4)ccc3c2[nH]1)C(C)C [compound 297] | < 1 |
| COC(=O)N[C@H](C(=O)N1CCC[C@H]1c1nc2ccc3cc(-c4ccc5cc(-c6cnc([C@@H]7CCCN7C(=O)[C@H](NC(=O)OC)c7ccccc7)[nH]6)ccc5n4)ccc3c2[nH]1)C(C)C [compound 298] | < 1 |
| COC(=O)N[C@H](C(=O)N1CCC[C@H]1c1nc2ccc3cc(-c4ccc5cc(-c6cnc([C@@H]7CCCN7C(=O)[C@H](NC(=O)OC7CCOCC7)c7ccccc7)[nH]6)ccc5n4)ccc3c2[nH]1)C(C)C [compound 299] | < 1 |

Same assay, conditions: Hepatitis C virus; Table 2; genotype 1b replicon, Huh 7 cells, 72 h, luciferase; read-out: Inhibition of HCV genotype 1b

| SMILES | EC50 [nM] |
| --- | --- |
| COC(=O)N[C@H](C(=O)N[C@@H](C)c1ncc(-c2ccc3cc(-c4ccc(-c5cnc([C@@H]6CCCN6C(=O)[C@@H](NC(=O)OC)C(C)C)[nH]5)cc4)ccc3c2)[nH]1)C(C)C [compound 304] | < 1 |
| COC(=O)N[C@H](C(=O)N1CCC[C@H]1c1ncc(-c2ccc(-c3ccc4cc(-c5cnc([C@@H]6C[C@@H](O)CN6C(=O)[C@@H](NC(=O)OC)C(C)C)[nH]5)ccc4c3)cc2)[nH]1)C(C)C [compound 305] | < 1 |
| COC(=O)N[C@H](C(=O)N1CC[C@H](O)[C@H]1c1ncc(-c2ccc3cc(-c4ccc(-c5cnc([C@@H]6CCCN6C(=O)[C@@H](NC(=O)OC)C(C)C)[nH]5)cc4)ccc3c2)[nH]1)C(C)C [compound 306] | < 1 |
| COC(=O)N[C@H](C(=O)N1CCCC[C@H]1c1ncc(-c2ccc3cc(-c4ccc(-c5cnc([C@@H]6CCCN6C(=O)[C@@H](NC(=O)OC)C(C)C)[nH]5)cc4)ccc3c2)[nH]1)C(C)C [compound 307] | < 1 |
| COC(=O)N[C@H](C(=O)N1CCC[C@H]1c1ncc(-c2ccc(-c3ccc4cc(-c5cnc([C@@H]6CSCCN6C(=O)[C@@H](NC(=O)OC)C(C)C)[nH]5)ccc4c3)cc2)[nH]1)C(C)C [compound 308] | < 1 |
| COC(=O)N[C@H](C(=O)N1CCC[C@H]1c1ncc(-c2ccc(-c3ccc4cc(-c5cnc([C@@H]6CCCN6C(=O)[C@@H](NC(=O)OC)C(C)C)[nH]5)ccc4c3)c(C#N)c2)[nH]1)C(C)C [compound 309] | < 1 |
| COC(=O)N[C@H](C(=O)N1CCC[C@H]1c1ncc(-c2ccc(-c3ccc4cc(-c5cnc([C@@H]6CCCN6C(=O)[C@@H](NC(=O)OC)C(C)C)[nH]5)ccc4c3)c(C(F)(F)F)c2)[nH]1)C(C)C [compound 310] | < 1 |
| COC(=O)N[C@H](C(=O)N1CCC[C@H]1c1ncc(-c2ccc3cc(-c4ccc(-c5cnc([C@@H]6CCCN6C(=O)[C@@H](NC(=O)OC)C(C)C)[nH]5)nn4)ccc3c2)[nH]1)C(C)C [compound 312] | < 1 |
| COC(=O)N[C@H](C(=O)N1CCC[C@H]1c1ncc(-c2ccc3cc(-c4ccc(-c5cnc([C@@H]6CCCN6C(=O)[C@@H](NC(=O)OC)C6CCOCC6)[nH]5)nn4)ccc3c2)[nH]1)C1CCOCC1 [compound 314] | < 1 |
| COC(=O)N[C@H](C(=O)N1CCC[C@H]1c1ncc(-c2ccc3cc(-c4ccc(-c5cnc([C@@H]6CCCN6C(=O)[C@H](NC(=O)OC)c6ccccc6)[nH]5)nn4)ccc3c2)[nH]1)C1CCOCC1 [compound 315] | < 1 |
